Assay results taken from patent US9102648B1, “Bioavailable diacylhydrazine ligands for modulating the expression of exogenous genes via an ecdysone receptor complex” (Intrexon Corporation, priority 2003, dated 2015).
Like-named read-outs stand apart in the source and are kept apart here.

Key:
[1] = molecular target: GAL4 DBD (1-147)-CfEcR(DEF)/VP16AD-βRXREF-LmUSPEF (Choristoneura fumiferana, UniProt O77240); assay: cell-based; details: for Fold Induction, 27-63 Assay, 3.3 uM: 3.3 uM ligand; for Fold Induction, 27-63 Assay, 3.3 uM / Fold Induction, 27-63 Assay, 33 uM: RLU ligand treated / RLU DMSO treated cells; for Fold Induction, 27-63 Assay, 33 uM: 33 uM ligand; for 27-63 assay Rel Max FI: maximum fold induction at any concentration relative to that of GS-E ligand, CHO 27-63 cells; for fold induction at 3.3 µM: read-out: Fold Induction, 27-63 Assay, 3.3 uM; for fold induction at 33 µM: read-out: Fold Induction, 27-63 Assay, 33 uM
[2] = molecular target: GAL4 DBD-CfEcR(DEF)/VP16AD-MmRXRE (Choristoneura fumiferana, UniProt O77240); assay: 13B3 Assay (CHO stable cell line, luciferase reporter); details: for Fold Induction, 13B3 Assay, 3.3 uM: 3.3 uM ligand; for Fold Induction, 13B3 Assay, 3.3 uM / Fold Induction, 13B3 Assay, 33 uM: RLU ligand treated / RLU DMSO treated cells; for Fold Induction, 13B3 Assay, 33 uM: 33 uM ligand; for 13B3 assay Rel Max FI: maximum fold induction at any concentration relative to that of GS-E ligand, CHO 13B3 cells; for fold induction at 3.3 µM: read-out: Fold Induction, 13B3 Assay, 3.3 uM; for fold induction at 33 µM: read-out: Fold Induction, 13B3 Assay, 33 uM
Outline: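 Ligands dosed at 8 levels from 33 to 0.01 μM (DMSO stocks diluted 300-fold) onto the 13B3 CHO line carrying GAL4-DBD/CfEcR-DEF, VP16/MmRXR-DE and a GAL4-responsive luciferase gene.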

[3] = read-out: 27-63 assay EC50, CHO 27-63 stable cell line, luciferase reporter, average of two wells
[4] = read-out: 13B3 EC50, CHO 13B3 stable cell line, luciferase reporter, 48 h, average of two wells

SMILES	Fold Induction, 27-63 Assay, 3.3 uM ([1]; average of two wells)	Fold Induction, 27-63 Assay, 33 uM ([1]; average of two wells)	27-63 assay Rel Max FI [1]	EC50 [1, 3] [nM]	Fold Induction, 13B3 Assay, 3.3 uM ([2]; average of two wells)	Fold Induction, 13B3 Assay, 33 uM ([2]; average of two wells)	13B3 assay Rel Max FI [2]	EC50 [2, 4] [nM]	EC50 [1] [nM]	fold induction at 3.3 µM [1]	fold induction at 33 µM [1]	EC50 [2] [nM]	fold induction at 3.3 µM [2]	fold induction at 33 µM [2]
COc1ccccc1C(=O)N(NC(=O)c1ccc2c(c1C)CCCO2)C(C)(C)C [RG-115102]	1154	971	0.667	491	1425	109	0.546	930						
COc1ccccc1C(=O)N(NC(=O)c1ccc2c(c1)OCCO2)C(C)(C)C [RG-100492]	4	1378	0.916	11800		1002								
CCc1c(OC)cccc1C(=O)NN(C(=O)c1ccc2c(c1)OCO2)C(C)(C)C [RG-100699]	398	1413	0.939	3960		2296								
CCc1c(C(=O)NN(C(=O)c2cc(Cl)nc(Cl)c2)C(C)(C)C)ccc2c1OCCO2 [RG-115297]	1544	946	0.986	330	1364	304	0.737	1360						
CC(O)c1ccc(C(=O)NN(C(=O)c2cc(F)cc(F)c2)C(C)(C)C)cc1 (stereo not shown) [RG-100342]	2	1287	0.674	17700		611								
CCc1c(C(=O)NN(C(=O)c2cc(F)ccc2F)C(C)(C)C)ccc2c1OCCO2 [RG-115508]	1195	969	0.719	1030	310	191	0.805	849						
Cc1ccc(F)c(C(=O)N(NC(=O)c2ccc3c(c2C)CCCO3)C(C)(C)C)c1 [RG-115499]	2092	1536	0.705	336	1182	731	0.489	328						
CCc1c(OC)cccc1C(=O)NN(C(=O)c1cc(C)cc(C)c1)C(C)(C)C=NCCO [RG-115511]	1	1155	0.74	12000	1	98	0.07	> 50000						
Cc1c(C(=O)NN(C(=O)c2cc(F)cc(F)c2)C(C)(C)C)ccc2c1CCCO2 [RG-115207]	1332	1279	0.704	593	7260	7959	0.707	618						
COc1cc(C(=O)N(NC(=O)c2ccc3c(c2C)OCCO3)C(C)(C)C)cc(OC)c1C [RG-115637, 5-Methyl-2,3-dihydro-benzo[1,4]dioxine-6-carboxylic acid N′-tert-butyl-N′-(3,5-dimethoxy-4-methyl-benzoyl)-hydrazide]			1.305				1.002		117	4160	2740	88	1110	636
COc1cccc(C(=O)NN(C(=O)c2cc(C)ccc2[N+](=O)[O-])C(C)(C)C)c1C [RG-100569]	884	841	0.720	287	1710	329	0.773	185						
CCc1c(OC)cccc1C(=O)NN(C(=O)c1cc(C)cc(C)c1)C(C)(C)C(=O)O [RG-115044, 2-[N-(3,5-Dimethyl-benzoyl)-N′-(2-ethyl-3-methoxy-benzoyl)-hydrazino]-2-methyl-propionic acid]			0.00				0.87		> 33000	1	2	> 50000		1
CCC(N(NC(=O)c1cccc(C)c1C)C(=O)c1cc(C)cc(C)c1)C(C)(C)C (stereo not shown) [RG-103309, 3,5-dimethyl-benzoic acid N′-(2,3-dimethyl-benzoyl)-N-(1-ethyl-2,2-dimethyl-propyl)-hydrazide]			0.975				1.486		3020	2540	1200	146	924	95
CCc1c(OC)cccc1C(=O)NN(C(=O)c1c(F)cccc1F)C(C)(C)C [RG-115033]	2	1256	0.868	18100	386	12	0.643	1000						
CCc1c(OC)cccc1C(=O)NN(C(=O)c1cc(C)cc(C)c1)C(C)(C)C=NNC(N)=O [RG-115653, semicarbazide of 2-ethyl-3-methoxy-benzoic acid N′-(3,5-dimethyl-benzoyl)-N′-(1,1-dimethyl-2-oxo-ethyl)-hydrazide]	1	832	0.53	19800	6									
COc1cccc(C(=O)NN(C(=O)c2cc(Cl)c(F)c(Cl)c2)C(C)(C)C)c1C [RG-101382, N-(3-methoxy-2-methylbenzoyl)-N′-(3,5-dichloro-4-fluorobenzoyl)-N′-tert-butylhydrazine]			1.188				0.915		306	2700	2570	588	13100	1010
CCc1c(C(=O)NN(C(=O)c2ccc(F)c(F)c2F)C(C)(C)C)ccc2c1OCCO2 [RG-115580]	1104	1031	0.760	375		298								
CCc1c(OC)cccc1C(=O)NN(C(=O)c1cc(C)cc(C)c1)C(C)(C)C=O [RG-115407, 2-ethyl-3-methoxy-benzoic acid N′-(3,5-dimethyl-benzoyl)-N′-(1,1-dimethyl-2-oxo-ethyl)-hydrazide]			0.932				1.048		1060	1610	1520	7000	2480	2610
Cc1c(C(=O)NN(C(=O)c2ccc(F)cc2)C(C)(C)C)ccc2c1CCCO2 [RG-115118]	1063	914	0.612	394	979	769	0.530	689						
